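Step 1: Grow cells in 96-well plates. Step 2: Expose to compound for 48 hours at 5 concentrations. Step 3: Interpolate endpoints linearly; if unreached, use highest concentration. At the GI50, growth is halved. Definition used: TGI = concentration required for complete inhibition of growth.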
Legend:
Assay in all cases: growth of human tumour cells (NCI), 48 h
CAKI-1 renal = tested on: CAKI-1 renal
EKVX NSCLC = tested on: EKVX NSCLC
HCT-116 colon = tested on: HCT-116 colon
HCT-15 colon = tested on: HCT-15 colon
HT29 colon = tested on: HT29 colon
SF-539 CNS = tested on: SF-539 CNS
SK-MEL-28 melanoma = tested on: SK-MEL-28 melanoma
SK-OV-3 ovarian = tested on: SK-OV-3 ovarian
U251 CNS = tested on: U251 CNS
UO-31 renal = tested on: UO-31 renal

SMILES | GI50 (CAKI-1 renal) [µM] | TGI (CAKI-1 renal) [µM] | GI50 (EKVX NSCLC) [µM] | TGI (EKVX NSCLC) [µM] | GI50 (HCT-116 colon) [µM] | TGI (HCT-116 colon) [µM] | GI50 (HCT-15 colon) [µM] | TGI (HCT-15 colon) [µM] | GI50 (HT29 colon) [µM] | TGI (HT29 colon) [µM] | GI50 (SF-539 CNS) [µM] | TGI (SF-539 CNS) [µM] | GI50 (SK-MEL-28 melanoma) [µM] | TGI (SK-MEL-28 melanoma) [µM] | GI50 (SK-OV-3 ovarian) [µM] | TGI (SK-OV-3 ovarian) [µM] | GI50 (U251 CNS) [µM] | TGI (U251 CNS) [µM] | GI50 (UO-31 renal) [µM] | TGI (UO-31 renal) [µM]
CCSCC1CC(O)(c2ccccc2)C(c2ccccc2)C(c2ccc(F)cc2)O1 (stereo not drawn) | 1.58 | 3.48 | 1.82 | 6.13 | 1.47 | 3.22 | 1.76 | 3.99 | 1.95 | 6.21 | 1.6 | 3.07 | 1.74 | 3.4 | 2.7 | 9.15 | 1.75 | 3.91 | 1.71 | 6.46
CCC(c1ccccc1)c1noc(CCN(CC)CC)n1 (stereo not drawn) | 2.18 | 6.39 | > 47 | > 91.3 | 18.5 | 43.4 | 19.2 | > 62.3 | 27.2 | 81.3 | 23.2 | 71.1 | 26.7 | > 73.2 | > 100 | > 100 | 29.5 | > 100 | 32.2 | > 100
O=[N+]([O-])c1ccc(-c2ccc(C3=Nn4c(CNc5ccccc5Cl)nnc4SC3)o2)cc1 |  | > 100 |  |  |  | > 100 |  | > 100 |  | > 100 |  | > 100 |  | > 100 |  | > 100 |  | > 100 |  | > 100
Nc1nccc(-c2c(-c3ccc(F)cc3)nn3cc(C(F)(F)F)ccc23)n1 | > 25 | > 25 | > 25 | > 25 | > 25 | > 25 | > 25 | > 25 | > 25 | > 25 | > 25 | > 25 | > 25 | > 25 | > 25 | > 25 | > 25 | > 25 | > 25 | > 25
COc1ccc(-c2nc3ccc(Cc4ccc5nc(-c6ccc(OC)cc6)[nH]c5c4)cc3[nH]2)cc1 | 0.0509 | 1.84 |  |  | 0.0339 | 0.14 |  |  | < 0.01 | 0.11 | 0.022 | 0.0707 | 0.252 | 2.49 | 0.0314 | 1.89 | 0.028 | 0.162 | 0.217 | 2.09
COc1cc(C(=O)/C=C/c2cccc(Nc3ccnc4cc(Cl)ccc34)c2)cc(OC)c1OC |  |  |  |  | 0.347 | 1.29 |  |  | 0.323 | 1.3 | 1.36 | 2.68 | 1.51 | 3.01 | 1.94 | 4.51 | 0.911 | 2.24 | 0.566 | 1.95
CC(=O)OCC(=O)[C@@]1(O)CC[C@H]2[C@@H]3C[C@H](C)C4=CC(=O)C=C[C@]4(C)[C@@]3(F)[C@@H](O)C[C@@]21C |  | > 100 |  | > 100 |  | > 100 |  | > 100 |  | > 100 |  | > 100 |  | > 100 |  | > 100 |  | > 100 |  | > 100
O=C1N[C@@H]2CCCC[C@@H]2C12CCCCC2 |  |  |  | > 100 |  | > 100 |  |  |  | > 100 |  | > 100 |  | > 100 |  | > 100 |  | > 100 |  | > 100
CCOC(=O)c1ccc(N=Nc2ccc(N(CCC#N)CCC#N)cc2C)cc1 |  | > 100 |  | > 100 |  |  |  | > 100 |  | > 100 |  | > 100 |  |  |  | > 100 |  | > 100 |  | > 100
CN(C)c1ccc(-c2cc(-c3ccc(Nc4nc(Nc5ccc(Cl)cc5)nc(Nc5ccc(Cl)cc5)n4)cc3)nc(N)c2C#N)cc1 | > 100 | > 100 | > 100 | > 100 | 4.99 | > 100 | 3.7 | > 100 | 8.85 | > 100 | 19.8 | > 100 | 2.05 | 6.35 | > 100 | > 100 | 10.7 | > 100 | 47.6 | > 100
CNCc1ccc(-c2cc(-c3nc(-c4ccc(S(=O)(=O)C(C)C)cc4)cnc3N)on2)cc1 | 2.71 | 21.1 |  |  | 1.08 | 2.3 | 0.519 | 2.3 | 0.492 | 1.83 | 0.502 | 1.88 | 1.72 | 3.21 | 6.57 | 24.7 | 4.93 | 21.5 | 1.35 | 14
COc1ccc2nc(NC(=O)C(=O)CC(=O)c3ccc([N+](=O)[O-])cc3)sc2c1 |  | > 100 |  | > 100 |  | > 100 |  |  |  | > 100 |  | > 100 |  | > 100 |  | > 100 |  | > 100 |  | > 100
O=C1NC(=O)C2C(=O)NC(=O)C1C2Cc1ccco1 (stereo not drawn) |  | > 100 |  | > 100 |  |  |  | > 100 |  | > 100 |  | > 100 |  | > 100 |  | > 100 |  |  |  | > 100
COC(=O)C1=C(C(=O)OC)C2(c3ccccc3)OC1(c1ccccc1)c1cc3ccccc3cc12 |  | 2.83 |  | 3.33 |  |  |  | 3.88 |  | 3.49 |  | 3.03 |  | 3.82 |  | 24.4 |  | 18.8 |  | 2.77
NC1=NC(Cn2nc(-c3ccccc3)c3ccccc3c2=O)=NNC(=O)N1 |  | > 100 |  |  |  | > 100 |  | > 100 |  | > 100 |  | > 100 |  | > 100 |  | > 100 |  | > 100 |  | > 100
Cc1cc(Cl)nc(N(CCNc2ccnc3cc(Cl)ccc23)Cc2ccco2)n1 |  |  | 2.68 | 12.1 | 1.58 | 3.2 | 1.61 | 3.69 | 2.11 | 6.83 | 1.87 | 3.48 | 1.74 | 3.33 | 2.56 | 7.44 | 1.64 | 3.09 | 1.42 | 2.93
COc1ccc(-c2[nH]c3ccc(OC)cc3c2C=C(C#N)C#N)cc1 |  | > 100 |  |  | 0.477 | > 100 | 0.766 | > 100 | 0.404 | > 100 | 1.32 | > 100 | 1.66 | > 100 | 0.731 | > 100 | 0.607 | > 100 | > 100 | > 100

— PubChem BioAssay (NCI)
